Data published in PubChem BioAssay AID330 (DTP/NCI, 2004).
Values joined by “and” are separate entries in the source; they are usually repeats but may differ in a detail not shown here. Equal values may be shown once. Inconclusive results and toxic doses are left out.

System: P388 leukemia ip, CD2F1 mice, survival T/C
Assay: NCI In Vivo Anticancer Drug Screen. Data for tumor model P388 Leukemia (intraperitoneal) in CD2F1 (CDF1) mice
Details: endpoint: median survival time, higher = longer survival
In short: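 Mice carrying the transplanted tumor received test compound or vehicle. Survival was recorded in each group, and the value is the treated-group measurement divided by that of the vehicle-treated control group.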

[1] = dose: 50.0 mg/kg/injection, schedule: Q01DX005 (ip), vehicle: Klucel (hydroxypropylcellulose) (HPC)
[2] = dose: 100.0 mg/kg/injection, schedule: Q01DX005 (ip), vehicle: Klucel (hydroxypropylcellulose) (HPC)
[3] = dose: 200.0 mg/kg/injection, schedule: Q01DX005 (ip), vehicle: Klucel (hydroxypropylcellulose) (HPC)

CCCCCCC(/C=C/c1ccc(Cl)c(Cl)c1)=N\Nc1ccccc1
T/C (dose: 6.25 mg/kg/injection, schedule: Q01DX009 (ip), vehicle: saline with Tween-80): 103 % of control
T/C (dose: 12.5 mg/kg/injection, schedule: Q01DX009 (ip), vehicle: saline with Tween-80): 97 % of control
T/C (dose: 25.0 mg/kg/injection, schedule: Q01DX009 (ip), vehicle: saline with Tween-80): 103 % of control
T/C (dose: 50.0 mg/kg/injection, schedule: Q01DX009 (ip), vehicle: saline with Tween-80): 100 % of control

C(=NCCC[Si]12OCCN(CCO1)CCO2)c1c[nH]c2ccccc12
T/C [1]: 104 % of control
T/C [2]: 103 % of control
T/C [3]: 102 % of control

CCOC(=O)C(=CNc1ccccn1)C(=O)OCC
T/C (dose: 100.0 mg/kg/injection, schedule: Q01DX009 (ip), vehicle: saline with Tween-80): 95 % of control
T/C (dose: 200.0 mg/kg/injection, schedule: Q01DX009 (ip), vehicle: saline with Tween-80): 100 % of control
T/C (dose: 400.0 mg/kg/injection, schedule: Q01DX009 (ip), vehicle: saline with Tween-80): 113 % of control

C(=N\N1CN(/N=C/c2ccccc2)C(c2ccccc2)C1c1ccccc1)/c1ccccc1 (configuration not stated)
T/C (dose: 12.5 mg/kg/injection, schedule: Q01DX005 (ip), vehicle: Klucel (hydroxypropylcellulose) (HPC)): 89 % of control
T/C (dose: 25.0 mg/kg/injection, schedule: Q01DX005 (ip), vehicle: Klucel (hydroxypropylcellulose) (HPC)): 99 % of control
T/C [1]: 99 % of control and 97 % of control
T/C [2]: 99 % of control
T/C [3]: 108 % of control

CC(=NC(C)C)Nc1ccc(Cl)cc1C
T/C (dose: 50.0 mg/kg/injection, schedule: Q01DX009 (ip), vehicle: saline + Tween-80 + alcohol): 101 % of control
T/C (dose: 100.0 mg/kg/injection, schedule: Q01DX009 (ip), vehicle: saline + Tween-80 + alcohol): 95 % of control

CCCCCCOc1cc2c(cc1C(C)c1ccc(OC)cc1)OCO2 (configuration not stated)
T/C [1]: 103 % of control
T/C [2]: 109 % of control
T/C [3]: 109 % of control

Cc1c2oc3c(C)ccc(C(=O)NC4C(=O)NC(C(C)C)C(=O)N5CCCC5C(=O)N(C)CC(=O)N(C)C(C(C)C)C(=O)OC4C)c3nc-2c(C(=O)NC2C(=O)NC(C(C)C)C(=O)N3CCCC3C(=O)N(C)CC(=O)N(C)C(C(C)C)C(=O)OC2C)c(Cl)c1=O (configuration not stated)
T/C (dose: 0.05 mg/kg/injection, schedule: Q01DX009 (ip), vehicle: water): 98 % of control
T/C (dose: 0.1 mg/kg/injection, schedule: Q01DX009 (ip), vehicle: water): 96 % of control
T/C (dose: 0.2 mg/kg/injection, schedule: Q01DX009 (ip), vehicle: water): 114 % of control
T/C (dose: 0.4 mg/kg/injection, schedule: Q01DX009 (ip), vehicle: water): 106 % of control
T/C (dose: 0.8 mg/kg/injection, schedule: Q01DX009 (ip), vehicle: water): 110 % of control
T/C (dose: 3.13 mg/kg/injection, schedule: Q01DX009 (ip), vehicle: water): 150 % of control
T/C (dose: 6.25 mg/kg/injection, schedule: Q01DX009 (ip), vehicle: water): 172 % of control
T/C (dose: 6.4 mg/kg/injection, schedule: Q01DX009 (ip), vehicle: water): 171 % of control
T/C (dose: 12.5 mg/kg/injection, schedule: Q01DX009 (ip), vehicle: water): 172 % of control and 243 % of control
T/C (dose: 25.0 mg/kg/injection, schedule: Q01DX009 (ip), vehicle: water): 101 % of control and 256 % of control

CN(O)C1(/C(N)=N/O)C(C2COC(C)(C)O2)OC2OC(C)(C)OC21 (configuration not stated)
T/C (dose: 100.0 mg/kg/injection, schedule: Q04DX002 (ip), vehicle: Klucel (hydroxypropylcellulose) (HPC)): 106 % of control
T/C (dose: 200.0 mg/kg/injection, schedule: Q04DX002 (ip), vehicle: Klucel (hydroxypropylcellulose) (HPC)): 106 % of control
T/C (dose: 400.0 mg/kg/injection, schedule: Q04DX002 (ip), vehicle: Klucel (hydroxypropylcellulose) (HPC)): 105 % of control

NCCO/C=C/C(N)C(=O)O (configuration not stated)
T/C (dose: 31.2 mg/kg/injection, schedule: Q01DX009 (ip), vehicle: saline): 99 % of control
T/C (dose: 62.5 mg/kg/injection, schedule: Q01DX009 (ip), vehicle: saline): 99 % of control
T/C (dose: 125.0 mg/kg/injection, schedule: Q01DX009 (ip), vehicle: saline): 99 % of control

C[Si](C)(C)CNCc1ccccc1
T/C (dose: 15.0 mg/kg/injection, schedule: Q01DX005 (ip), vehicle: saline): 108 % of control
T/C (dose: 30.0 mg/kg/injection, schedule: Q01DX005 (ip), vehicle: saline): 105 % of control
T/C (dose: 60.0 mg/kg/injection, schedule: Q01DX005 (ip), vehicle: saline): 102 % of control and 97 % of control

CS(=O)(=O)Nc1ccc(Oc2c3ccccc3nc3ccccc23)cc1
T/C (dose: 100.0 mg/kg/injection, schedule: Q01DX001 (ip), vehicle: saline with Tween-80): 91 % of control
T/C (dose: 200.0 mg/kg/injection, schedule: Q01DX001 (ip), vehicle: saline with Tween-80): 92 % of control
T/C (dose: 400.0 mg/kg/injection, schedule: Q01DX001 (ip), vehicle: saline with Tween-80): 90 % of control
